Results: PubChem BioAssay AID1963597 (National Center for Advancing Translational Sciences (NCATS), 2024)

test system: human liver microsomes, metabolic stability half-life; assay: NCATS Human Liver Microsomal (HLM) Stability Profiling; details: higher = more stable; screened at 1 µM (by protocol)
Source text: Assay submitter (PI): Dr. Pranav Shah
NIH Center for Advancing Translational Sciences
Pharmacokinetic issues were the leading cause of drug attrition, accounting for approximately 40% of all cases before the turn of the century. To this end, several high-throughput in vitro assays like microsomal stability have been developed to evaluate the pharmacokinetic profiles of compounds in early stages of drug discovery. At NCATS, a single-point rat liver microsomal (RLM) stability assay is used as a Tier I assay, while human liver microsomal (HLM) stability is employed as a Tier II assay. While it is beneficial to have compound libraries screened for HLM stability, the increasing magnitude of hits routinely generated, and the time- and re-source-intensive nature of the assay makes it important to find alternatives. One strategy is to rely on in silico models that have been developed using data generated from these assays. Herein, we describe the development of an HLM stability prediction model using our in-house dataset of ~7,000 compounds, employing both traditional and advanced machine learning methods. Additionally, the strong correlation between our RLM and HLM data was further reinforced by the fact that our HLM model performance improved after adding RLM stability predictions as an input descriptor. […] The best model along with a subset of our dataset has been made publicly accessible on the NCATS@ADME website for the benefit of the greater drug discovery community.
Microsomal Stability Assay
The substrate depletion method, also called the in vitro t1/2 method was used to analyze test compounds. Incubation and liquid handling were carried out using a previously described method (Shah et al., 2016). Briefly, each reaction mixture (110 µL) consisted of a test article (1 µM), human liver microsomes (0.5 mg/mL), and NADPH regenerating system in phosphate buffer at pH 7.4. Samples were incubated in 384-well plates at 37 degrees C for 0, 5, 10, 15, 30 and 60 min. At each time point, 10 µL of the incubation mixture was aspirated into another 384-well plate which contained cold acetonitrile (ACN) with internal standard (albendazole). All plates were centrifuged at 3000 rpm for 20 min at 4 degrees C, and the supernatants were transferred to a 384-well injection plate. Sample quantification and analysis was performed using a previously described method (Shah et al., 2016, Siramshetty et al., 2020).
1: Shah, P. et al. An Automated High-Throughput Metabolic Stability Assay Using an Integrated High-Resolution Accurate Mass Method and Automated Data Analysis Software. Drug Metab Dispos 44, 1653-1661 (2016).
2: Siramshetty et al. Retrospective assessment of rat liver microsomal stability at NCATS: data and QSAR models. Sci Rep 26;10(1):20713 (2020).

| SMILES | half-life |
| --- | --- |
| Cc1ccccc1C(=O)N1CCC(C(=O)N2CCC(N3Cc4ccccc4C3=O)CC2)CC1 | 93.1 min |
| O=C(NCc1ccc(OC(F)(F)F)cc1)C1c2c(F)cccc2C(=O)N1CCc1ccccn1 (stereo not drawn) | 6.61 min |
| CC[C@]1(O)C[C@@H]2CN(CCc3c([nH]c4ccccc34)[C@@](C(=O)OC)(c3cc4c(cc3OC)N(C)[C@H]3[C@@](O)(C(=O)OC)[C@H](OC(C)=O)[C@]5(CC)C=CCN6CC[C@]43[C@@H]65)C2)C1 | 54.6 min |
| O=C(O)Cc1ccc2oc(-c3ccc(NC(=O)/C=C/c4ccc(Br)cc4)c(F)c3)nc2c1 | > 120 min |
| CC(C)(N)c1ncc(-c2ccc(OC(F)(F)F)cc2)[nH]1 | > 120 min |
| COc1cccc(C(=O)Nc2ccc3ncnc(N4CCCCC4)c3c2)c1 | 5.03 min |
| O=C(c1ccc(F)cc1)C1CCN(CCn2c(=S)[nH]c3ccccc3c2=O)CC1 | 8.98 min |
| C[C@H]1CN(CC[C@H](O)C2CCCCC2)CC[C@@]1(C)c1cccc(O)c1 | 6.75 min |
| C(#Cc1cccc(CN2CCOCC2)c1)CCN1CCCCC1 | > 120 min |
| CCOP(=S)(OCC)Oc1nc(Cl)n(C(C)C)n1 | 15.1 min |
| CC(Cc1cccc(C(F)(F)F)c1)NCCOC(=O)c1ccccc1 (stereo not drawn) | 0.84 min |
| COc1ccccc1N1CCN(CCCNc2cc(=O)n(C)c(=O)n2C)CC1 | > 120 min |
| Cc1noc(-c2ccc(-c3ccc(CC(=O)O)cc3)cc2)c1NC(=O)O[C@H](C)c1ccccc1Cl | 29.7 min |
| CN1CCN(CCCN2c3ccccc3Sc3ccc(C(F)(F)F)cc32)CC1 | 22.5 min |
| CC(=O)OCC(=O)[C@@]1(O)CC[C@H]2[C@@H]3CCC4=CC(=O)C=C[C@]4(C)[C@@]3(F)[C@@H](O)C[C@@]21C | 87.5 min |
| NCCc1ccc(O)cc1 | > 120 min |
| O=C(c1ccccn1)N(Cc1cccs1)C1(C(=O)NC2CCCCC2)CCCCC1 | 1.6 min |
| C[C@@H](Oc1cc(-n2cnc3ccc(OC4CCN(C)CC4)cc32)sc1C(N)=O)c1ccccc1C(F)(F)F | 8.99 min |
| Cc1cc(=O)n(-c2ccccc2)n1C | > 120 min |
| Cc1cc2c(F)c(Oc3ncnn4cc(OCC(C)OC(=O)C(C)N)c(C)c34)ccc2[nH]1 (stereo not drawn) | 1.26 min |
| c1ccc2c(c1)CCC[C@H]2C1=NCCN1 | > 120 min |
| CC(C)(CNC(=O)c1cccc(-c2noc(C(F)(F)F)n2)c1)c1coc(-c2ccccc2)n1 | 33.1 min |
| COc1ccc2c3c1O[C@H]1[C@@H](O)C=C[C@H]4[C@@H](C2)N(C)CC[C@@]341 | 112 min |
| CCOc1cc(CNC(=O)c2ccc(C)c(NC(=O)c3nsc4ccccc34)c2)ccc1OC | 7.12 min |
| CCC(=O)c1ccc2c(c1)N(CCCN(C)C)c1ccccc1S2 | 15.4 min |

| SMILES | half-life |
| --- | --- |
| Cc1ccc(-n2c(SCc3ccccc3F)nc3[nH]ncc3c2=O)cc1C | 21.6 min |
| CC(C)(C)c1coc([C@@H]2COCCN2Cc2cccc(C#N)c2)n1 | 10.4 min |
| CC1(C)SCCN(S(=O)(=O)c2ccc(OCC#CCO)cc2)[C@@H]1C(=O)NO | > 120 min |
| Cc1cccc(C)c1NC(=O)CN1CCCC1 | > 120 min |
| COc1ccc(CCNc2nc(SCc3ccccc3Cl)nc3ccccc23)cc1OC | 7.1 min |
| COC(=O)[C@H](Cc1cccc(C(=N)N)c1)[C@@H](C)NC(=O)c1ccc(-c2cc[n+]([O-])cc2)cc1 | > 120 min |
| CC(CN(C)C)CN1C2=C(CCCC2)SC2CCCCC21 (stereo not drawn) | 14.3 min |
| NC1CCC(Nc2cc(-c3cccc(NCc4cccc(F)c4)n3)c(Cl)cn2)CC1 (stereo not drawn) | > 120 min |
| CC1(C)O[C@@H]2C[C@H]3[C@@H]4C[C@H](F)C5=CC(=O)CC[C@]5(C)[C@H]4[C@@H](O)C[C@]3(C)[C@]2(C(=O)CO)O1 | 18 min |
| CC[C@]1(C2=NCCN2)Cc2ccccc2O1 | > 120 min |
| CCCCOCCOC(=O)c1cccnc1 | 0.66 min |
| CC1(C)CC(=O)c2c(C(F)(F)F)nn(-c3ccc(C(N)=O)c(NC4CCC(OC(=O)CN)CC4)c3)c2C1 (stereo not drawn) | 1.57 min |
| C[C@@H](N)c1ccc(C(=O)Nc2ccnc3[nH]ccc23)cc1 | > 120 min |
| C[C@]12CCC3c4ccc(O)cc4C[C@@H](CCCCCCCCCS(=O)CCCC(F)(F)C(F)(F)F)[C@H]3[C@@H]1CC[C@@H]2O (stereo partly drawn) | 4.1 min |
| COc1cccc2c1C(=O)c1c(O)c3c(c(O)c1C2=O)C[C@@](O)(C(=O)CO)C[C@@H]3O[C@H]1C[C@H](N)[C@H](O[C@@H]2CCCCO2)[C@H](C)O1 | > 120 min |
| COCC(=O)Nc1c(I)c(C(=O)NCC(O)CO)c(I)c(C(=O)N(C)CC(O)CO)c1I (stereo not drawn) | 84.2 min |
| C#Cc1cccc(Nc2ncnc3cc(OCCOC)c(OCCO)cc23)c1 | > 120 min |
| O=C(CCNc1c(-c2cccc(F)c2)nc2cnccn12)N1CCCC1 | 4.93 min |
| N#CC1C(=O)Nc2scc(-c3ccc(-c4ccccc4O)cc3)c2C1=O (stereo not drawn) | > 120 min |
| N#Cc1ccc(C(=O)Nc2ccc(Cl)c(-c3nc4ncccc4o3)c2)c(F)c1 | 10.3 min |
| COc1ccc2cc(-c3cc(-c4cc(Cl)cc(Cl)c4)nn3C(C)c3ccc(C(=O)NCCC(=O)O)cc3)ccc2c1 (stereo not drawn) | > 120 min |
| Nc1ncnc2c1c(COc1cccc(Cl)c1)nn2C1CCOCC1 | 39.9 min |
| CC(C)CCn1c(CN2CCN(C(=O)C(C)C)CC2)nc2c1c(=O)n(C)c(=O)n2C | 70.7 min |
| COc1cc(C(C)=O)ccc1OCCCN1CCC(c2noc3cc(F)ccc23)CC1 | 25.1 min |
| COc1cc(N2CCN(C)CC2)ccc1Nc1nccc(-c2cn(C)c3cnccc23)n1 | > 120 min |

| SMILES | half-life |
| --- | --- |
| CC1(C)C(=O)C(C)(C)c2cc(C(=O)Nc3ccc(C(=O)O)cc3)ccc21 | > 120 min |
| Cc1ccccc1-n1c(SCc2ccc(Cl)cc2)nc2[nH]ncc2c1=O | 53.2 min |
| NC(N)=Nc1nc(CSCC/C(N)=N/S(N)(=O)=O)cs1 | > 120 min |
| CCn1c(C(=O)NCc2ccccc2Cl)cc2sc(Cl)cc21 | 7.52 min |
| c1cncc(CN2CCC(n3ncc4c(N5CCOCC5)nc(-c5ccc6[nH]ccc6c5)nc43)CC2)c1 | 14.9 min |
| COc1ccc(-n2nc3c(N4CCCC(C(=O)NCc5ccccc5C)C4)nnc(C)c3c2C)cc1 (stereo not drawn) | 2.48 min |
| CCCN(CCN1CCN(c2ccccc2OC)CC1)C1CCc2ncsc2C1 (stereo not drawn) | 2.54 min |
| CN1CC(O)c2cc(N=NC(N)=O)c(O)cc21 (stereo not drawn) | > 120 min |
| CCCC(Nc1nc(-c2ccc(NC(=O)NCC)c(OC)c2)ncc1C)c1cccnc1 (stereo not drawn) | 30.5 min |
| CC(=O)c1ccc(C(=O)N(Cc2cccnc2)c2nc3c(C)c(C)ccc3s2)cc1 | 6.25 min |
| CC(C)CC(N(C)C)C1(c2ccc(Cl)cc2)CCC1 (stereo not drawn) | 3.57 min |
| CCCCNC(=O)NS(=O)(=O)c1ccc(C)cc1 | 115 min |
| CCCCCCCCC(=O)NCc1ccc(O)c(OC)c1 | 3.71 min |
| Cc1c(-c2ccnn2C)cc(C(=O)NCc2ccc(S(C)(=O)=O)cn2)c(=O)n1-c1cccc(C(F)(F)F)c1 | > 120 min |
| CN(C)C(CCOc1cccc2ccccc12)c1ccccc1 (stereo not drawn) | 12.8 min |
| O=c1cc(N2CCOCC2)oc2c(-c3cccc(F)c3)nccc12 | 34.5 min |
| CCN(CC)C(=O)/C(Cl)=C(\C)OP(=O)(OC)OC | > 120 min |
| Cc1cc(C(=O)N2CCCCc3ccccc32)ccc1CNC(=O)N1CCC[C@H]1C(=O)N(C)C | 6.54 min |
| OCc1ccccn1 | > 120 min |
| CCC(C(=O)O)c1ccc(N2Cc3ccccc3C2=O)cc1 (stereo not drawn) | > 120 min |
| CC(=O)c1ccc(O)c(C(N)=O)c1 | > 120 min |
| Nc1ccccc1NC(=O)c1ccc(CNc2nccc(-c3cccnc3)n2)cc1 | > 120 min |
| O=C(C=Cc1cccc(S(=O)(=O)Nc2ccccc2)c1)NO | > 120 min |
